The term Kd denotes the concentration at which binding is half-saturated.

The values below come from ChEMBL document CHEMBL3991601, “The target landscape of clinical kinase drugs” (Science, 2017).

In test [1] the target is Bone morphogenetic protein receptor type-1A (Homo sapiens, UniProt P36894).
The target in test [2] is Citron Rho-interacting kinase (Homo sapiens, UniProt O14578).
The target of test [3] is T1, Eukaryotic translation initiation factor 5B (Homo sapiens, UniProt O60841).
T1 sequence (O60841 whole entry): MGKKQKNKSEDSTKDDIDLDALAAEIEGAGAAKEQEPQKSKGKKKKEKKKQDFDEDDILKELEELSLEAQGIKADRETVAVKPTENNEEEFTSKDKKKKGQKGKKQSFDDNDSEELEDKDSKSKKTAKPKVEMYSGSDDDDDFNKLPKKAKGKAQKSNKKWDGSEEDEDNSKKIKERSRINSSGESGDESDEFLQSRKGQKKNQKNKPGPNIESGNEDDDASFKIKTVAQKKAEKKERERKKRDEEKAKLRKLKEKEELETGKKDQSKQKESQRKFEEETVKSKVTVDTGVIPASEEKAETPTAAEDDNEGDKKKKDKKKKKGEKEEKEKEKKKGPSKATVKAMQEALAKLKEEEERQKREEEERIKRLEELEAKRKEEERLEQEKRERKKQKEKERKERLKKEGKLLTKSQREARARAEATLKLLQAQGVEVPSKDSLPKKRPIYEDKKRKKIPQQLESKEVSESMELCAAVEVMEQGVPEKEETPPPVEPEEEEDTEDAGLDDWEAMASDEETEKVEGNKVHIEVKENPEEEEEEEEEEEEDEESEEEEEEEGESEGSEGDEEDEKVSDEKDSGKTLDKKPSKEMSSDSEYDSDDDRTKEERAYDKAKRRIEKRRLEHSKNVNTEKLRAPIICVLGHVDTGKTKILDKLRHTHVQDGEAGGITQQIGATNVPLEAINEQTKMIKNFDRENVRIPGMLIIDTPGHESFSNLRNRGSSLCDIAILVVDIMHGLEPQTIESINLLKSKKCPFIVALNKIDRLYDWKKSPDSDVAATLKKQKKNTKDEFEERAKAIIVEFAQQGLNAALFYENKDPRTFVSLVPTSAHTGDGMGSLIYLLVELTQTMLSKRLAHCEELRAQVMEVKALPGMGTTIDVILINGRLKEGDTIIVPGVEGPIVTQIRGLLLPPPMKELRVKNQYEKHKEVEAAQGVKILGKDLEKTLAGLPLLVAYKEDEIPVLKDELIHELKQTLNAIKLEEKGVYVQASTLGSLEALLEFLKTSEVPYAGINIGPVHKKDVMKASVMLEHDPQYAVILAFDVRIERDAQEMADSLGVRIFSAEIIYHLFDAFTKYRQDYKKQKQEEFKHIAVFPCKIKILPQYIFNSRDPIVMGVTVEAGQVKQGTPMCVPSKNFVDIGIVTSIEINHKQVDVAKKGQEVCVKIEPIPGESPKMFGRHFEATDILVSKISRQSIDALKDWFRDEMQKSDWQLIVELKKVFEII

The target in another test is T2, Ephrin type-B receptor 6 (Homo sapiens, UniProt O15197).
T2 sequence (O15197 whole entry): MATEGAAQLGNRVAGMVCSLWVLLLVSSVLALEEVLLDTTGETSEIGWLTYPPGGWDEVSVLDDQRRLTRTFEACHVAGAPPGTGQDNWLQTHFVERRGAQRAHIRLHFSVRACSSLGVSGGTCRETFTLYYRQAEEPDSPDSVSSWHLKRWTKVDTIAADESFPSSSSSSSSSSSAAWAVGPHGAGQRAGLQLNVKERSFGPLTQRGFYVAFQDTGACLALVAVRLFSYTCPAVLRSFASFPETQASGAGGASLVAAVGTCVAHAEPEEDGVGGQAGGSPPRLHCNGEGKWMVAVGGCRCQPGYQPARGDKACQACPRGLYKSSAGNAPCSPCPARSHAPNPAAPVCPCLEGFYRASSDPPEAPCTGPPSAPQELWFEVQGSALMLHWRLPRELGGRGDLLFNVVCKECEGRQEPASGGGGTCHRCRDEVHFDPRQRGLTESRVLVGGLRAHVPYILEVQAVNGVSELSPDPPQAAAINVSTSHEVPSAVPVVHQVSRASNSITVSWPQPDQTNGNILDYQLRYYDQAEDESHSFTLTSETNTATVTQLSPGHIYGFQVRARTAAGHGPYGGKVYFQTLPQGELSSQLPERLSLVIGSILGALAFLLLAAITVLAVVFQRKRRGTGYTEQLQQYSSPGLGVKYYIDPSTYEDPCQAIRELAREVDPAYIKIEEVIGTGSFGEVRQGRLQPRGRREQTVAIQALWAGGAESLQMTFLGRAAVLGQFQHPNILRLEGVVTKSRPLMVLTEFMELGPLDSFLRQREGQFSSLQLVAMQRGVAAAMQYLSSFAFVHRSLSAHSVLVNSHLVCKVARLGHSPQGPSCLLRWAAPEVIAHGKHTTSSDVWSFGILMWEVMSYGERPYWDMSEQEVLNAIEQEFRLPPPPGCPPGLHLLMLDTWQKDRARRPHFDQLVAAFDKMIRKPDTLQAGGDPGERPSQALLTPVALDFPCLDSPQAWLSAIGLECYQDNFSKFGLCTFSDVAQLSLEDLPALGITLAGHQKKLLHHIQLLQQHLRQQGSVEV

The target in test [4] is T3, Interleukin-1 receptor-associated kinase 4 (Homo sapiens, UniProt Q9NWZ3).
T3 sequence (Q9NWZ3 whole entry): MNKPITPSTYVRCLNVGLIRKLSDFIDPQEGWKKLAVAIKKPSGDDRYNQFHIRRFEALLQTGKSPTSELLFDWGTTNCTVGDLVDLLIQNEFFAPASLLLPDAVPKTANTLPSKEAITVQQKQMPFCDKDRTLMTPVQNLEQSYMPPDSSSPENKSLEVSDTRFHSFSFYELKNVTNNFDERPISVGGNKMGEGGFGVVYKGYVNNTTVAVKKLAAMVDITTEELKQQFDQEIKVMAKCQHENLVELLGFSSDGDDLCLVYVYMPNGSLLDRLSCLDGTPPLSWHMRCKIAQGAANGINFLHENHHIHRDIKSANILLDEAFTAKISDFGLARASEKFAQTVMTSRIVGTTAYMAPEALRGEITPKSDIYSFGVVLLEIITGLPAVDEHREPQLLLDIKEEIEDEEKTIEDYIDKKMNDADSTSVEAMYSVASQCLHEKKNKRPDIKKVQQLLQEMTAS

Activity calls are given as the source filed them. Rule as the data show it, for most assays here: actives have a measured Kd and inactives only a lower limit.
Also: in the data inactive means no Kd found up to 30 µM.

Chain of Bone morphogenetic protein receptor type-1A (P36894 whole entry): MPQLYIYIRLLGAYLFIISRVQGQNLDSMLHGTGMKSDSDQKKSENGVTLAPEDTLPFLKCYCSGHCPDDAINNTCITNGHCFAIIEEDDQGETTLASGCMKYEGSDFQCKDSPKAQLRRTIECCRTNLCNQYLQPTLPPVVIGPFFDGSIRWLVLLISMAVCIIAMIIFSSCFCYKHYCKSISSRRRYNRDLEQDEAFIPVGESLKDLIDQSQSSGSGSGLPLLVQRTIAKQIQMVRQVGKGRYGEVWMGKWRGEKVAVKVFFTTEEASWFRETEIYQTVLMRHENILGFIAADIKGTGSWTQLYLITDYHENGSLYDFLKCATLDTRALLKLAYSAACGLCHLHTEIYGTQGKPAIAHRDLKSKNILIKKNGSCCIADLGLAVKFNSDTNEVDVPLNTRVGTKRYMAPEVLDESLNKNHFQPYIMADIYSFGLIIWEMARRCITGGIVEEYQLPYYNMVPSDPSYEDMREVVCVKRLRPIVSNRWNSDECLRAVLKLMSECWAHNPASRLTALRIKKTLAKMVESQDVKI
Chain of Citron Rho-interacting kinase (O14578 whole entry): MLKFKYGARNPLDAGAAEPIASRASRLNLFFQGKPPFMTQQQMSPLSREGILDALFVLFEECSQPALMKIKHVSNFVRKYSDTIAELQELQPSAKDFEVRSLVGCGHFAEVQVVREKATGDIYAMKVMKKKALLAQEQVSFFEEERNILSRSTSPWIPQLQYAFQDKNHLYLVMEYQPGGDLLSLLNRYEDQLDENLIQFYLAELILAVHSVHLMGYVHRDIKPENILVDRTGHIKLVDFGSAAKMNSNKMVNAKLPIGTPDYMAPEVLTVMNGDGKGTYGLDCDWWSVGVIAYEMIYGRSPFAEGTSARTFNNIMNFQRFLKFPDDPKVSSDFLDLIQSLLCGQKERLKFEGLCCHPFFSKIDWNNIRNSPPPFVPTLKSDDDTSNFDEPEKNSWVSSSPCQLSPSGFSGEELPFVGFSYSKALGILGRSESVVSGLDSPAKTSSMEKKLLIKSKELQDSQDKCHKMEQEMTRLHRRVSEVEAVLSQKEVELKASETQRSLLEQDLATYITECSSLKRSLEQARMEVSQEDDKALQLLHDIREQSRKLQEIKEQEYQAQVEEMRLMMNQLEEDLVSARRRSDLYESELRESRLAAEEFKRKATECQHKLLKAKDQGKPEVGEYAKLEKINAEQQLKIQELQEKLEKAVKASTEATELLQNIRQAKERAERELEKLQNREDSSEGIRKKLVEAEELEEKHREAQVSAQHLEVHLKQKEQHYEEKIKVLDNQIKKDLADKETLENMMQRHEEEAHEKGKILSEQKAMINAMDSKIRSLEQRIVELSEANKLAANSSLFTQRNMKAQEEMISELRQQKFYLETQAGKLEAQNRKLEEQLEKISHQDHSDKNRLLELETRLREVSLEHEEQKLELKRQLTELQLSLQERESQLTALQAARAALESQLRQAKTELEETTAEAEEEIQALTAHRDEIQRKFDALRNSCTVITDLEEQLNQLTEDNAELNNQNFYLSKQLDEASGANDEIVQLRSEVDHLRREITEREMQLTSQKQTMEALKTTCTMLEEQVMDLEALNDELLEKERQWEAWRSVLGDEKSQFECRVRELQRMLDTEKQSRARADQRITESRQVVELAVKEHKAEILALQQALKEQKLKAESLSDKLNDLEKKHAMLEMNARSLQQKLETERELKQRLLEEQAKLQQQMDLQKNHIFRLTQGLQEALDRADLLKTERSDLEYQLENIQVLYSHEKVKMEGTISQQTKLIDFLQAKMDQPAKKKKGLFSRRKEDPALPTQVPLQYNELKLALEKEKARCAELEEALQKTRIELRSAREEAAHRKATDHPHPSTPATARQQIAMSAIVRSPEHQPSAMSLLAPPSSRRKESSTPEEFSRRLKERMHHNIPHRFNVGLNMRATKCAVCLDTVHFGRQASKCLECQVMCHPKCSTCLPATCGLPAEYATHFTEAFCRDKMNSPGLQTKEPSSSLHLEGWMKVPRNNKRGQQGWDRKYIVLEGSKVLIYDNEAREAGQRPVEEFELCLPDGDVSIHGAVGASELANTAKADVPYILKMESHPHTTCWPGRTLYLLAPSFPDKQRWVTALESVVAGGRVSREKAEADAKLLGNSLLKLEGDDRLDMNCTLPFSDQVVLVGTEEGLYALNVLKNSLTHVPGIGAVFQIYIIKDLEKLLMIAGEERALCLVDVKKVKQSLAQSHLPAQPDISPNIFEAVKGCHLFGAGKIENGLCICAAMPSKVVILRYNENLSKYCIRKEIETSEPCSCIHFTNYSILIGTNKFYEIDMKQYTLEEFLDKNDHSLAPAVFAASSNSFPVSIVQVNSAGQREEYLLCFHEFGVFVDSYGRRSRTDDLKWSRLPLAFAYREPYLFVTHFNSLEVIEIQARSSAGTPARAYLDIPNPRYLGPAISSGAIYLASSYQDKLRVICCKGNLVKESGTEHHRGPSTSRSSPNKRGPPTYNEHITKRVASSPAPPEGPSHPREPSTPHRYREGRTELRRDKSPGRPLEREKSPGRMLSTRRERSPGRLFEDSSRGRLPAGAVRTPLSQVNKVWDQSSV

As for `C[C@H]1CNCCCN1S(=O)(=O)c1cccc2cncc(F)c12`, the Kd (in test [1]; in test [2]; in test [3]; on Ephrin type-B receptor 6; in test [4]) was > 30 µM (inactive) in each case.

Consider `CC(=O)c1cnc2ccc(-c3cc(Cl)c(O)c(Cl)c3)nc2c1N[C@H]1CC[C@H](CN(C)C)CC1`, for which the Kd in test [1] is > 30 µM (inactive); in test [2], 0.098 µM (active); in test [3], > 30 µM (inactive); on Ephrin type-B receptor 6, 0.521 µM (active).

Take `C=CC(=O)N1CCC[C@H](n2c(=O)n(-c3ccc(Oc4ccccc4)cc3)c3c(N)ncnc32)C1`: the Kd (in test [1]; in test [2]; in test [3]; on Ephrin type-B receptor 6; in test [4]) was > 30 µM (inactive) each time.

In the case of `Cc1nc2cc(-c3nn(C(C)C)c4ncnc(N)c34)ccc2o1`, the Kd was 1.28 µM (active) in test [1]; > 30 µM (inactive) in test [2]; > 30 µM (inactive) in test [3]; > 30 µM (inactive) on Ephrin type-B receptor 6; > 30 µM (inactive) in test [4].

In the case of `COc1cc(Nc2ncc3c(n2)-c2ccc(Cl)cc2C(c2c(F)cccc2OC)=NC3)ccc1C(=O)O` [ALISERTIB], the Kd (in test [1]; in test [3]; on Ephrin type-B receptor 6) was > 30 µM (inactive) in each case.

Consider `Cc1nc(NC(=O)N2CCC[C@H]2C(N)=O)sc1-c1ccnc(C(C)(C)C(F)(F)F)c1` [ALPELISIB], for which the Kd (in test [1]; in test [2]; in test [3]; on Ephrin type-B receptor 6; in test [4]) was > 30 µM (inactive) throughout.

Turning to `Cc1csc(-c2nnc(Nc3ccc(Oc4ncccc4-c4ccnc(N)n4)cc3)c3ccccc23)c1` [AMG-900], the Kd (in test [1]; in test [2]; in test [3]; at Ephrin type-B receptor 6; in test [4]) was > 30 µM (inactive) throughout.

Regarding `O=C(Nc1c[nH]nc1-c1nc2cc(CN3CCOCC3)ccc2[nH]1)NC1CC1` [AT-9283], the dissociation constant Kd in test [1] is 0.388 µM (active); in test [2], > 30 µM (inactive); in test [3], > 30 µM (inactive); at Ephrin type-B receptor 6 it was 0.012 µM (active); in test [4], > 30 µM (inactive).

Take `C=CC(=O)Nc1cc2c(Nc3ccc(F)c(Cl)c3)ncnc2cc1C#CC(C)(C)N1CCN(C)CC1` [AV-412 FREE BASE]: the Kd (in test [1]; in test [2]; in test [3]; at Ephrin type-B receptor 6; in test [4]) was > 30 µM (inactive) throughout.

Take `CNC(=O)c1ccccc1Sc1ccc2c(/C=C/c3ccccn3)n[nH]c2c1` [AXITINIB]: the Kd in test [3] was > 30 µM (inactive).

As to `Cc1cc(C(=O)NOCCO)c(Nc2ccc(I)cc2F)n(C)c1=O` [AZD-8330], the Kd (in test [1]; in test [2]; in test [3]; at Ephrin type-B receptor 6; in test [4]) was > 30 µM (inactive) throughout.

As to `Cn1cnc2c(F)c(Nc3ccc(Br)cc3F)c(C(=O)NOCCO)cc21` [BINIMETINIB], the Kd (in test [1]; in test [2]; in test [3]; on Ephrin type-B receptor 6; in test [4]) was > 30 µM (inactive) in each case.

As for `CCn1c(C(=O)N(C2CC2)C2CC2)cc2c3c(ncn3C)c(Nc3cc(C)n(C)n3)nc21` [BMS-911543], the Kd (in test [1]; in test [2]; in test [3]; on Ephrin type-B receptor 6; in test [4]) was > 30 µM (inactive) each time.

With `COc1cc2ncnc(Oc3cccc(NC(=O)Nc4cc(C(C)(C)C(F)(F)F)on4)c3)c2cc1OC` [CEP-32496], the Kd (in test [1]; in test [2]; in test [3]; on Ephrin type-B receptor 6; in test [4]) was > 30 µM (inactive) each time.

On to `COc1c(OCCCN2CCOCC2)ccc2c1N=C(NC(=O)c1cnc(N)nc1)N1CCN=C21` [COPANLISIB], for which the Kd (in test [1]; in test [2]; in test [3]; at Ephrin type-B receptor 6; in test [4]) was > 30 µM (inactive) in each case.

Take `C[C@@H](Oc1cc(-n2cnc3ccc(CN4CCN(C)CC4)cc32)sc1C(N)=O)c1ccccc1C(F)(F)F` [GSK-461364]: the Kd in test [3] was > 30 µM (inactive).

On to `O=C(Nc1cc(C(F)(F)F)cc(C(F)(F)F)c1)c1cc(Cl)ccc1O` [IMD-0354], for which the Kd (in test [1]; in test [2]; in test [3]; at Ephrin type-B receptor 6) was > 30 µM (inactive) in each case.

As for `Cc1[nH]c(/C=C2\C(=O)Nc3ccccc32)c(C)c1CCC(=O)O` [ORANTINIB], the Kd in test [1], in test [2] and in test [3] was > 30 µM (inactive) each time.

For `NC(=O)c1c(OCc2c(F)cc(Br)cc2F)nsc1NC(=O)NCCCCN1CCCC1` [OSI-632], the Kd in test [2] was > 30 µM (inactive); in test [3], > 30 µM (inactive); on Ephrin type-B receptor 6, 0.226 µM (active).

As for `O=C(NOCCO)c1cc(CN2OCCCC2=O)c(F)c(F)c1Nc1ccc(I)cc1F` [RO-4987655], the Kd in test [3] was > 30 µM (inactive).

Regarding `N#CC[C@H](C1CCCC1)n1cc(-c2ncnc3[nH]ccc23)cn1` [RUXOLITINIB], the Kd in test [3] was > 30 µM (inactive).

On to `CC(C)c1cc(CNc2nc(Nc3cc(C4CC4)[nH]n3)cc(N3CCN(C)CC3)n2)on1` [XL-228], for which the Kd was > 30 µM (inactive) in test [2], > 30 µM (inactive) in test [3], 0.026 µM (active) on Ephrin type-B receptor 6 and > 30 µM (inactive) in test [4].
